Measured values as given in PMC9234961 (Journal of Medicinal Chemistry, 2022).

Key:
MAOA = MAOA (Homo sapiens, UniProt P21397); experiment: SAFETYScan Non-Kinase Enzymes Enzymatic, Inhibitor; format: biochemical
Description: (§1) Supplement jm1c02175_si_002.xlsx, sheet "SAFETYScan" | column: RC50 (uM); Max Response

AChE = AChE (Homo sapiens, UniProt P22303); experiment: SAFETYScan Non-Kinase Enzymes Enzymatic, Inhibitor; format: biochemical
Description: as §1

PDE4D2 = PDE4D2 (Homo sapiens, UniProt Q08499); experiment: SAFETYScan Non-Kinase Enzymes Enzymatic, Inhibitor; format: biochemical
Chain of PDE4D2 (Q08499 303-809 limits assumed): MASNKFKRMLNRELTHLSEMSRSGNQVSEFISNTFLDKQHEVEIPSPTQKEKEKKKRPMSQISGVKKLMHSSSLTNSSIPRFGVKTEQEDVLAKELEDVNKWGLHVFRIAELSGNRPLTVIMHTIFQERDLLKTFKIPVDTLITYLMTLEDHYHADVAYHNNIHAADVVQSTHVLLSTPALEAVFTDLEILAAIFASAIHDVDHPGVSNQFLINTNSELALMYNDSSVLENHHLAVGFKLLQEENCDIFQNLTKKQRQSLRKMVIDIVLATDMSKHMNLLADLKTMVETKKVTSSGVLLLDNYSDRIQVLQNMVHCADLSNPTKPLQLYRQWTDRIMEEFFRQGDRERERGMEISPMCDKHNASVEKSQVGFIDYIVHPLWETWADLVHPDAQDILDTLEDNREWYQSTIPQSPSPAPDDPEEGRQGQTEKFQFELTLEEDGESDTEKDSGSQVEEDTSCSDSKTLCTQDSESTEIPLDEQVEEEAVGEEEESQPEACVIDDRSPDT
Description: as §1

COX1 = COX1 (Homo sapiens, UniProt P23219); experiment: SAFETYScan Non-Kinase Enzymes Enzymatic, Inhibitor; format: biochemical
Chain of COX1 (P23219 24-599): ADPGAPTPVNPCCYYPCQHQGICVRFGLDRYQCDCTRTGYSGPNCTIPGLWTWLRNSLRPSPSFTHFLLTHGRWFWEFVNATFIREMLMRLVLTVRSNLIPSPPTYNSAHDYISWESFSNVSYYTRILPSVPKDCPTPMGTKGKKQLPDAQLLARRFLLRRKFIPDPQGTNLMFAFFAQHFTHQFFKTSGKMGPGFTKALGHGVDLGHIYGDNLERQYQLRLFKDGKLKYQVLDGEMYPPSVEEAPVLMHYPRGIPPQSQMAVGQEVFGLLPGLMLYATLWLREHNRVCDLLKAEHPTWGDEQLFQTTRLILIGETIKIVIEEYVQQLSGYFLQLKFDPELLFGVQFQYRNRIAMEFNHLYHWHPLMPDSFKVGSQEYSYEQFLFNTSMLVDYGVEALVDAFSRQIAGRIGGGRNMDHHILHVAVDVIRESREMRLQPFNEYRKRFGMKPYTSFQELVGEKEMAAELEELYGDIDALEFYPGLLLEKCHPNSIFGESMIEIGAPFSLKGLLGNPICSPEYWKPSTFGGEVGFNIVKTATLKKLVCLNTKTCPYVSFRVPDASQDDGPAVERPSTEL
Description: as §1

in vitro = in vitro ADME; conditions: bovine; fraction unbound in OCI-Ly1 DC50 assay medium; read-out: fu,media
DRD2S = biological target: T1, DRD2S (Homo sapiens, UniProt P14416); experiment: SAFETYScan GPCR cAMP, Agonist; format: cell-based
T1 construct: expressed in transfected cells
T1 sequence (P14416 1-414 isoform P14416-2): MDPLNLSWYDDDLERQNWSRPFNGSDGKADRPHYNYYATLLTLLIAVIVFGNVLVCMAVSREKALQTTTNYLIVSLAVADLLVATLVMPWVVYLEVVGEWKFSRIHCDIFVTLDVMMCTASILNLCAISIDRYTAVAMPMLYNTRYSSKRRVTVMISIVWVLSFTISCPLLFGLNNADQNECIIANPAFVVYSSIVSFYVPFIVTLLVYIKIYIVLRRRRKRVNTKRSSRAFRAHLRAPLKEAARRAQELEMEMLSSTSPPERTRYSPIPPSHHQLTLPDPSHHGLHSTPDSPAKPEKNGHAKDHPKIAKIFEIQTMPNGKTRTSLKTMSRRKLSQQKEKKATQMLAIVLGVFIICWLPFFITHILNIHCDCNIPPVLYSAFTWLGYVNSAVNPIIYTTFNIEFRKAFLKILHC
Description: as §1

HRH2 = biological target: T2, HRH2 (Homo sapiens, UniProt P25021); experiment: SAFETYScan GPCR cAMP, Agonist; format: cell-based
T2 construct: expressed in transfected cells
T2 sequence (P25021 whole entry): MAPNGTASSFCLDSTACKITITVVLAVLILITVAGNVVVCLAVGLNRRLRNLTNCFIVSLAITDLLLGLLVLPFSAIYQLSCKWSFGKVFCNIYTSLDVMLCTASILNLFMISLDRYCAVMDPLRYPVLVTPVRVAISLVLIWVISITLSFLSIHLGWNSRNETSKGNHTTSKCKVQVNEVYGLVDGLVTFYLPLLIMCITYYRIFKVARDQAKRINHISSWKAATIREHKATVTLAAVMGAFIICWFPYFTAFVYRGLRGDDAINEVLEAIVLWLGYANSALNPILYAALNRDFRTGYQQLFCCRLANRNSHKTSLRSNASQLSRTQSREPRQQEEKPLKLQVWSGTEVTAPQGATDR
Description: as §1

OPRK1 = OPRK1 (Homo sapiens, UniProt P41145); experiment: SAFETYScan GPCR cAMP, Agonist; format: cell-based
Chain of OPRK1 (P41145 whole entry, species assumed): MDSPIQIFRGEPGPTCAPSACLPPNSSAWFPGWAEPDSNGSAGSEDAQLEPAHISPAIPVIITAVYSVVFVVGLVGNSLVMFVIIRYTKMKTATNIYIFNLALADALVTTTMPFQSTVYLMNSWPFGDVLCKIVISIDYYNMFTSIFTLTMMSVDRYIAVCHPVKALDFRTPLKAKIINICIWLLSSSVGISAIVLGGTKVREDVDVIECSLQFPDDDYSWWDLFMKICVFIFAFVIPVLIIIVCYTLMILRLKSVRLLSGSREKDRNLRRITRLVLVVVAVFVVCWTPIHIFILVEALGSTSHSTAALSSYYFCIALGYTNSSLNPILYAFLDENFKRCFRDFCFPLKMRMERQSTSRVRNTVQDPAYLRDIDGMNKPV
Description: as §1

ADRA2A = biological target: T3, ADRA2A (Homo sapiens, UniProt P08913); experiment: SAFETYScan GPCR cAMP, Agonist; format: cell-based
T3 construct: expressed in transfected cells
T3 sequence (P08913 1-465): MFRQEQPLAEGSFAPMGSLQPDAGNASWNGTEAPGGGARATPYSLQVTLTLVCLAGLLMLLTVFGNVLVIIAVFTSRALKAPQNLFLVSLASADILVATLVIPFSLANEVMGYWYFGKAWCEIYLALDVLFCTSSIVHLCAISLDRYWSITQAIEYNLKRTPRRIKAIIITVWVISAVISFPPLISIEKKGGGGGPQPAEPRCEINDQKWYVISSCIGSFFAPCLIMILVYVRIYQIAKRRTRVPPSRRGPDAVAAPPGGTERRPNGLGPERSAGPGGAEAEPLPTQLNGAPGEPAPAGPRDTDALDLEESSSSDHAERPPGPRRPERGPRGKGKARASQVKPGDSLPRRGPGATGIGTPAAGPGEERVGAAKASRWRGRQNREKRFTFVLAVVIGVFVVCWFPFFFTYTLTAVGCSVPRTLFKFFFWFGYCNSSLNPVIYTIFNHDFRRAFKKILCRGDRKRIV
Description: as §1

OPRD1 = OPRD1 (Homo sapiens, UniProt P41143); experiment: SAFETYScan GPCR cAMP, Agonist; format: cell-based
Chain of OPRD1 (P41143 whole entry, species assumed): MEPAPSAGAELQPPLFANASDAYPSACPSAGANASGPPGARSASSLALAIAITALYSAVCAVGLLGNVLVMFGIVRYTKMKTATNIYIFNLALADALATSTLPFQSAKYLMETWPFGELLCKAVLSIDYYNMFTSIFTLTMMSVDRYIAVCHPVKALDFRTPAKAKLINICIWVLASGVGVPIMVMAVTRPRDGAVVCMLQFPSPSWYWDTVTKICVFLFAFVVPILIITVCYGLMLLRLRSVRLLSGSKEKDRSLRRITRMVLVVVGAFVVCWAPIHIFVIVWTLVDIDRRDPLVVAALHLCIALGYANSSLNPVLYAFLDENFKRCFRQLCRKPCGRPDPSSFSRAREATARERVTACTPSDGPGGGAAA
Description: as §1

OPRM1 = OPRM1 (Homo sapiens, UniProt P35372); experiment: SAFETYScan GPCR cAMP, Agonist; format: cell-based
Chain of OPRM1 (P35372 whole entry, species assumed): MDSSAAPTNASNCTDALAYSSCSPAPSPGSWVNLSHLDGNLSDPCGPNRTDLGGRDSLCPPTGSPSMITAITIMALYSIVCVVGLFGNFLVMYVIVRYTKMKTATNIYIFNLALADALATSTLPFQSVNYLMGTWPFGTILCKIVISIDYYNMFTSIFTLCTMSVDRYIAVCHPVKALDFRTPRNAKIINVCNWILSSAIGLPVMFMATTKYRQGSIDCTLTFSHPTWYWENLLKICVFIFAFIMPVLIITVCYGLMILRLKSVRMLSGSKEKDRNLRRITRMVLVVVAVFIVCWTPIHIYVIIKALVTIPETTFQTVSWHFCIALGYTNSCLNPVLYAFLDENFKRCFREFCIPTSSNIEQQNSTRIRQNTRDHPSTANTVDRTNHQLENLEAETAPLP
Description: as §1

ADRB2 = biological target: T4, ADRB2 (Homo sapiens, UniProt P07550); experiment: SAFETYScan GPCR cAMP, Agonist; format: cell-based
T4 construct: expressed in transfected cells
T4 sequence (P07550 whole entry): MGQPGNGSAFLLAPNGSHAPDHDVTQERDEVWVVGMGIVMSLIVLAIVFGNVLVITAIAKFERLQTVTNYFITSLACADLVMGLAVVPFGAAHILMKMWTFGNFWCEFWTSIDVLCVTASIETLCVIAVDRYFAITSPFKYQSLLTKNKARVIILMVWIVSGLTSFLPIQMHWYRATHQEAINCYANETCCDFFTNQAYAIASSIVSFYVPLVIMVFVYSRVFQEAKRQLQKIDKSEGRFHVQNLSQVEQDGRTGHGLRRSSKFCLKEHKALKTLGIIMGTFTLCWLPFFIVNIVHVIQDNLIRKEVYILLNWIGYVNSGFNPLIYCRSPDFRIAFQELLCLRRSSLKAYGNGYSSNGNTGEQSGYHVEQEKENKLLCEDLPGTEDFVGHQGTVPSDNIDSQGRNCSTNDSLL
Description: as §1

HTR1B = biological target: T5, HTR1B (Homo sapiens, UniProt P28222); experiment: SAFETYScan GPCR cAMP, Agonist; format: cell-based
T5 construct: expressed in transfected cells
T5 sequence (P28222 whole entry): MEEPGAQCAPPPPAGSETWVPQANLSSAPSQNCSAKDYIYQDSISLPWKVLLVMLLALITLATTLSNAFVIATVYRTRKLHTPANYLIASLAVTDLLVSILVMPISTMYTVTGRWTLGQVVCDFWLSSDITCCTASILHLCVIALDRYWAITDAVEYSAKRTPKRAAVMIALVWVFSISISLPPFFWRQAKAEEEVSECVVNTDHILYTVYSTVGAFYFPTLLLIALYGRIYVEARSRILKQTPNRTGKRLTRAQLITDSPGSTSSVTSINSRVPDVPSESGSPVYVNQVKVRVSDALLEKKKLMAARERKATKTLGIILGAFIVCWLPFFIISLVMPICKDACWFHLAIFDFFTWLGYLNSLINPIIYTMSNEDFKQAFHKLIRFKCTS
Description: as §1

HTR1A = biological target: T6, HTR1A (Homo sapiens, UniProt P08908); experiment: SAFETYScan GPCR cAMP, Agonist; format: cell-based
T6 construct: expressed in transfected cells
T6 sequence (P08908 1-422): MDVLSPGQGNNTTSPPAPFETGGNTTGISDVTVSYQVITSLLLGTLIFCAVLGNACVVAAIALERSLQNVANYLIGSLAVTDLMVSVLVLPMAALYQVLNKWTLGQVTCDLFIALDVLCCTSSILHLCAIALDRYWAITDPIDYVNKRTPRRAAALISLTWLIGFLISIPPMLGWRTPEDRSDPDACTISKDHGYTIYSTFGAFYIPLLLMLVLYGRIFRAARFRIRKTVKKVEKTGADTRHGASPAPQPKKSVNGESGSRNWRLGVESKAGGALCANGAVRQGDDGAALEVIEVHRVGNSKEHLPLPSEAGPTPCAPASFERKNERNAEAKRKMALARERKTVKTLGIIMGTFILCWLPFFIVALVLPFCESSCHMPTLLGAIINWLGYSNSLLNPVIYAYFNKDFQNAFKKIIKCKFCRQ
Description: as §1

ADRB1 = biological target: T7, ADRB1 (Homo sapiens, UniProt P08588); experiment: SAFETYScan GPCR cAMP, Agonist; format: cell-based
T7 construct: expressed in transfected cells
T7 sequence (P08588 whole entry): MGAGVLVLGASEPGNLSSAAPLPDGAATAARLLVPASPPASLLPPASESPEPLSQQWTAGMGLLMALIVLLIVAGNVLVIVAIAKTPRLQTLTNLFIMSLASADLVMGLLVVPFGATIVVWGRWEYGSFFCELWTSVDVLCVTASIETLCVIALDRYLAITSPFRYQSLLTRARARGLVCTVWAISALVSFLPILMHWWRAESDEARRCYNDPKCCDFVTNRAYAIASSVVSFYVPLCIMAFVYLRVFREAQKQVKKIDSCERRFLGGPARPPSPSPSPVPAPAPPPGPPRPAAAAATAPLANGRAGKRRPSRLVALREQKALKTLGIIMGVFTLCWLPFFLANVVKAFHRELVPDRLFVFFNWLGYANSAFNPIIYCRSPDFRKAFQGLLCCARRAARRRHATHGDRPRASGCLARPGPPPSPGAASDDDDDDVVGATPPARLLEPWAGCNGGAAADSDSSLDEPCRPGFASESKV
Description: as §1

AR = biological target: T8, AR (Homo sapiens, UniProt P10275); experiment: SAFETYScan NHR Nuclear Translocation, Agonist; format: cell-based
T8 sequence (P10275 1-920): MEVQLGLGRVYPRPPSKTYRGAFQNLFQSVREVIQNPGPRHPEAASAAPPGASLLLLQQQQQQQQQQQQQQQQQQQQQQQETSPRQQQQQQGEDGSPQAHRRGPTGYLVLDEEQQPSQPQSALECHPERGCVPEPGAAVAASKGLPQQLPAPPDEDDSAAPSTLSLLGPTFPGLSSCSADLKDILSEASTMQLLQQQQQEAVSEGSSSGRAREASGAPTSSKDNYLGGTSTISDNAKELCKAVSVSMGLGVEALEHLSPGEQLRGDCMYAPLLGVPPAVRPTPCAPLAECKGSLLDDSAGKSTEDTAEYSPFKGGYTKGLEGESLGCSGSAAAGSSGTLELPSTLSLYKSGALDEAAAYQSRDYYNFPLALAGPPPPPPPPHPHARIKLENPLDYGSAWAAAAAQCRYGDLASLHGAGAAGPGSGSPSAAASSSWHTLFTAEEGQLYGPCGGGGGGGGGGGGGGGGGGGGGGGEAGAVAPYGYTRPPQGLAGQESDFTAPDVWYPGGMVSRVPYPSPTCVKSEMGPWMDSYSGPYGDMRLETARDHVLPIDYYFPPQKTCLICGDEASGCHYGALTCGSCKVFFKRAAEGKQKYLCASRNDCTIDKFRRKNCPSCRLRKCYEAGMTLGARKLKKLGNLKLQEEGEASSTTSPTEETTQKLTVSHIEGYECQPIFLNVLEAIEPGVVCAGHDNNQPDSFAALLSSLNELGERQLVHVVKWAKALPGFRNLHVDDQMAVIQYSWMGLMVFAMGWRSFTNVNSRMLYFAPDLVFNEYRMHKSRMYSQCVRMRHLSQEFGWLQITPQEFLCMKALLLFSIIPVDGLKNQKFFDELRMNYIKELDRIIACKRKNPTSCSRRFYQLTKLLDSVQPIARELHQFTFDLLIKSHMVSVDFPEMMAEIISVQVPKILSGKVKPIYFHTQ
Description: as §1

Chain of AChE (P22303 32-614): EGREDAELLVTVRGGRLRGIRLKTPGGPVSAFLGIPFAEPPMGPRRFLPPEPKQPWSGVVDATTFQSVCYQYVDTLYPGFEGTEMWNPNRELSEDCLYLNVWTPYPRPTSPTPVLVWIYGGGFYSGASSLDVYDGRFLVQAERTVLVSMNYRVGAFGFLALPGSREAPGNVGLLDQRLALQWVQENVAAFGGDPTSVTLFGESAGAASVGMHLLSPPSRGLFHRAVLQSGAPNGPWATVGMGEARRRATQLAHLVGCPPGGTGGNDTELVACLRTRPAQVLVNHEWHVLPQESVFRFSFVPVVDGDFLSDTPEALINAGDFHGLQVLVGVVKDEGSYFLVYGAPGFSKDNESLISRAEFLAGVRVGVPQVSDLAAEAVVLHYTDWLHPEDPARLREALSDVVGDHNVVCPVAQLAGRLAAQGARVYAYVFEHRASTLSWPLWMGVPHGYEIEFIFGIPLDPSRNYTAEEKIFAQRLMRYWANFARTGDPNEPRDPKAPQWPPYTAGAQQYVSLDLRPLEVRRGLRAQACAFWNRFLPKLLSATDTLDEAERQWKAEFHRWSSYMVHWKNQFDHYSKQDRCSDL

C[C@H]1C[C@@H](O)CN(c2ncc(Cl)c(Nc3ccc4c(c3)c3c(c(=O)n4C)OCC(F)(F)[C@H](C4CC4)N3)n2)C1 [12a CCT373566, (S)-10-((5-Chloro-2-((3R,5S)-3-hydroxy-5-methylpiperidin-1-yl)pyrimidin-4-yl)amino)-2-cyclopropyl-3,3-difluoro-7-methyl-1,2,3,4-tetrahydro-[1,4]oxazepino[2,3-c]quinolin-6(7H)-one]
Emax (MAOA; read-out: Max Response): 0%
IC50 (MAOA; read-out: RC50 (IC50)): > 10 µM
Emax (AChE; read-out: Max Response): 3.36%
IC50 (AChE; read-out: RC50 (IC50)): > 10 µM
Emax (PDE4D2; read-out: Max Response): 10.8%
IC50 (PDE4D2; read-out: RC50 (IC50)): > 10 µM
Emax (COX1; read-out: Max Response): 33%
IC50 (COX1; read-out: RC50 (IC50)): > 10 µM
fraction unbound (in vitro): 0.13
Emax (DRD2S; read-out: Max Response): 1.64%
EC50 (DRD2S; read-out: RC50 (EC50)): > 10 µM
Emax (HRH2; read-out: Max Response): 0%
EC50 (HRH2; read-out: RC50 (EC50)): > 10 µM
Emax (OPRK1; read-out: Max Response): 37.1%
EC50 (OPRK1; read-out: RC50 (EC50)): > 10 µM
Emax (ADRA2A; read-out: Max Response): 33.6%
EC50 (ADRA2A; read-out: RC50 (EC50)): > 10 µM
Emax (OPRD1; read-out: Max Response): 60.3%
EC50 (OPRD1; read-out: RC50 (EC50)): 4.95 µM
Emax (OPRM1; read-out: Max Response): 28.9%
EC50 (OPRM1; read-out: RC50 (EC50)): > 10 µM
Emax (ADRB2; read-out: Max Response): 0%
EC50 (ADRB2; read-out: RC50 (EC50)): > 10 µM
Emax (HTR1B; read-out: Max Response): 21.5%
EC50 (HTR1B; read-out: RC50 (EC50)): > 10 µM
Emax (HTR1A; read-out: Max Response): 12.5%
EC50 (HTR1A; read-out: RC50 (EC50)): > 10 µM
Emax (ADRB1; read-out: Max Response): 0%
EC50 (ADRB1; read-out: RC50 (EC50)): > 10 µM
Emax (AR; read-out: Max Response): 0%
EC50 (AR; read-out: RC50 (EC50)): > 10 µM
